Test results taken from patent US9259390B2, “Parenteral and oral formulations of benzimidazoles” (priority 2003, dated 2016).
≈ marks a conversion by molar mass, not a printed value. Where “and” joins values, the source holds several entries; their conditions need not be identical. Equal values may be shown once.

Columns and labels:
[1] = In vitro MZ release, USP Dissolution Apparatus 2; type: physicochemical; conditions: for Cumulative MZ Released: individual determinations
Procedure: All four formulations were filled manually with a syringe into a hydrophilic airfill soft gelatin capsule (R. P. Scherer, Basking Ridge, N.J.) and the resulting hole was sealed thermally. […] C. Cremphor RH 40 was used to maintain the sink condition of the releasing medium. The release medium was constantly stirred at 50 rpm by a Teflon-coated dissolution paddle. Serial release samples were withdrawn and filtered through a 0.45 μm Millipore filter and analyzed by the HPLC assay.

SRB1 = experiment: Cell growth inhibition in skin cancer cells; type: cell-based
A375 = experiment: Cell growth inhibition in skin cancer cells; type: cell-based; conditions: Homo sapiens, A-375
2237 = experiment: Cell growth inhibition in skin cancer cells; type: cell-based
H1299 cells = experiment: Cell growth inhibition in NSCLC cells; type: cell-based; conditions: Homo sapiens, NCI-H1299, NSCLC cells; MZ from two microemulsion formulations
[2] = 33 days

## COC(=O)Nc1nc2ccc(C(=O)c3ccccc3)cc2[nH]1 [MZ, methyl 5-benzoylbenzimidazole-2-carbamate]
[1]; 10 min
  Cumulative MZ Released, Mean: 0.04 % Dose
[1]; 10 min, listed as MZ powder
  Cumulative MZ Released: 0.01 % Dose and 0.012 % Dose and 0.083 % Dose
[1]; 20 min
  Cumulative MZ Released, Mean: 0.15 % Dose
[1]; 20 min, listed as MZ powder
  Cumulative MZ Released: 0.035 % Dose and 0.22 % Dose and 0.18 % Dose
[1]; 30 min
  Cumulative MZ Released, Mean: 0.22 % Dose
[1]; 30 min, listed as MZ powder
  Cumulative MZ Released: 0.14 % Dose and 0.25 % Dose and 0.28 % Dose
[1]; 40 min
  Cumulative MZ Released, Mean: 0.29 % Dose
[1]; 40 min, listed as MZ powder
  Cumulative MZ Released: 0.22 % Dose and 0.23 % Dose and 0.41 % Dose
[1]; 50 min
  Cumulative MZ Released, Mean: 0.29 % Dose
[1]; 50 min, listed as MZ powder
  Cumulative MZ Released: 0.2 % Dose and 0.31 % Dose and 0.35 % Dose
[1]; 60 min, listed as MZ powder
  Cumulative MZ Released: 0.27 % Dose (2×) and 0.32 % Dose
  Cumulative MZ Released, Mean: 0.29 % Dose
[1]; 60 min, listed as unformulated drug powder
  Cumulative MZ Released, Mean: 0.3 % Dose
SRB1
  IC50: 0.091 µg/mL (≈ 0.308 µM)
A375
  IC50: 0.129 µg/mL (≈ 0.437 µM)
2237
  IC50: 0.171 µg/mL (≈ 0.579 µM)
H1299 cells
  IC50: 0.008 µg/mL (≈ 0.0271 µM)
[2]
  pH-stability: sufficiently stable
physchem
  logP: 2.51
